Source: patent US12295396B2, “Antagonists of T2R54 and compositions and uses thereof” (Firmenich Incorporated, priority 2018, dated 2025)

Target: T1, hT2R54 (Homo sapiens, UniProt P59534)
T1 construct: expressed in transfected cells; it overexpresses a promiscuous G protein
T1 sequence (P59534 1-338): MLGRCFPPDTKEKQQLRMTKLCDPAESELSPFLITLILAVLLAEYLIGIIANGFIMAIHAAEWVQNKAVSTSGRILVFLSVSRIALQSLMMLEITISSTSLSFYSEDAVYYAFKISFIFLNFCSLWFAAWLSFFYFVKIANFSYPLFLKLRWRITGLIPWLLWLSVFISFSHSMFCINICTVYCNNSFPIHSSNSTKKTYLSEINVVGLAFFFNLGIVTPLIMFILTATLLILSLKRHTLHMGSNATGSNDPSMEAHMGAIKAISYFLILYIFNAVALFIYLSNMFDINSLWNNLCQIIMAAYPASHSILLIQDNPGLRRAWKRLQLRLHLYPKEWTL
Test: Cell-based assay for measuring hT2R54 inhibition (FLIPR calcium, Fluo4AM, acetaminophen as bitter agonist)
Conditions: Table 2; cells stably expressing hT2R54 and a promiscuous G protein; read-out: hT2R54 IC50
Description: Cells stably expressing hT2R54 and a promiscuous G protein were seeded in 384 well plates 24 hours prior to the experiment. Cells were loaded with the calcium indicator Fluo4AM, washed and loaded in a FLIPR instrument with a compound plate containing increasing doses of acetaminophen in quadruplicates and prepared at 2× of final concentration. Baseline was recorded for 10 seconds, then 25 μl of […] was added onto 25 μl of cells and resulting changes in fluorescence were monitored over an additional 3 minutes. The host cell line overexpressing the G protein but not hT2R54 was treated as described above.
The ability of a test compound that blocks bitter taste elicited through hT2R54 was measured in this assay, as follows. Cells stably expressing hT2R54 and a promiscuous G protein were seeded in 384 well plates 24 hours prior to the experiment. Cells were loaded with the calcium indicator Fluo4AM, washed and loaded in a FLIPR instrument with a compound plate containing increasing doses of acetaminophen in buffer and increasing doses of acetaminophen with depicted fixed concentrations of Cmpd 109 (Table 4). Base line was recorded for 10 seconds, then 25 μl of compound and compound mixtures were added onto 25 μl of cells and resulting changes in fluorescence were monitored over an additional 3 minutes. The concentration of test compound that blocks half of the response when the bitter compound alone is present is presented as the EC50 or IC50 value.
In the examples above, the EC50 of compounds for blocking bitter taste elicited through T2R54 was measured in the same manner.

Row | Structure (SMILES) | IC50
1 | CC(=O)c1cc2c(cc1NC(=O)CN1CCN(C(=O)c3cccc(F)c3)CC1)OCO2 [compound 46] | 26 nM
2 | COc1cccc(CC(=O)N2CCN(CC(=O)Nc3cc4c(cc3C(C)=O)OCO4)CC2)c1 [compound 58] | 60 nM
3 | CC(=O)c1cc2c(cc1NC(=O)CN1CCN(C(=O)Oc3ccccc3)CC1)OCO2 [compound 31] | 262 nM
4 | CC(=O)c1cc2c(cc1NC(=O)CN1CCN(C(=O)c3nc(C)c[nH]3)CC1)OCCO2 [compound 332] | 200 nM

Other lines, results leading:

Row | IC50 | Structure (SMILES)
5 | 90 nM | CC(=O)c1cc2c(cc1NC(=O)CN1CCN(C(C)=O)CC1)OCO2 [compound 7]
6 | 90 nM | CC(=O)c1cc2c(cc1NC(=O)CN1CCN(C(=O)C3CCCO3)CC1)OCCO2 (stereo not drawn) [compound 340]
7 | 2640 nM | COc1cc2c(cc1NC(=O)CN1CCN(C(=O)CN3CCOCC3)CC1)OCO2 [compound 365]
8 | 520 nM | CCOC(=O)N1CCN(CC(=O)Nc2cc3c(cc2OC)OCO3)CC1 [compound 83]
9 | 234 nM | COCc1cccc(C(=O)N2CCN(CC(=O)Nc3cc4c(cc3C(C)=O)OCO4)CC2)c1 [compound 51]
10 | 5000 nM | COc1cc2c(cc1NC(=O)CN1CCN(C(=O)c3ccc(O)c(O)c3)CC1)OCO2 [compound 381]
11 | 200 nM | COc1cc2c(cc1NC(=O)CN1CCN(C(=O)c3nc(C)c[nH]3)CC1)OCO2 [compound 391]
12 | 40 nM | CC(=O)c1cc2c(cc1NC(=O)CN1CCN(C(=O)c3c(C)noc3C)CC1)OCO2 [compound 69]
13 | 40 nM | CC(=O)c1cc2c(cc1NC(=O)CN1CCN(C(=O)C3CC3)CC1)OCO2 [compound 12]
14 | 1140 nM | COc1cc2c(cc1NC(=O)CN1CCN(C(C)=O)CC1)CCC2 [compound 410]
15 | 90 nM | CC(=O)c1cc2c(cc1NC(=O)CN1CCN(C(=O)c3n[nH]cc3C)CC1)OCO2 [compound 307]
16 | 29 nM | CC(=O)c1cc2c(cc1NC(=O)CN1CCN(C(=O)C3CCCC3)CC1)OCO2 [compound 16]
17 | 1160 nM | COc1cc2c(cc1NC(=O)CN1CCN(C(=O)C3CCCO3)CC1)OCO2 (stereo not drawn) [compound 85]
18 | 23 nM | COC(=O)c1cc2c(cc1NC(=O)CN1CCN(C(=O)c3cn(C)nn3)CC1)OCO2 [compound 346]
19 | 1100 nM | COc1cc2c(cc1NC(=O)CN1CCN(C(=O)[C@H]3CCC(=O)O3)CC1)OCO2 [compound 402]
20 | 500 nM | COc1cc2c(cc1NC(=O)CN1CCN(C(=O)CC3CCCCO3)CC1)OCO2 (stereo not drawn) [compound 409]
21 | 770 nM | COCc1cc(C(=O)N2CCN(CC(=O)Nc3cc4c(cc3OC)OCO4)CC2)no1 [compound 397]
22 | 17 nM | CC(=O)c1cc2c(cc1NC(=O)CN1CCN(C(=O)c3cnn(C)c3)CC1)OCO2 [compound 66]
23 | 490 nM | COc1cc2c(cc1NC(=O)CN1CCN(C(=O)CC(C)C)CC1)OCO2 [compound 6, N-(6-Methoxybenzo[d][1,3]dioxol-5-yl)-2-(4-(3-methylbutanoyl)piperazin-1-yl)acetamide]
24 | 311 nM | CCOC(=O)N1CCN(CC(=O)Nc2cc3c(cc2C(C)=O)OCO3)CC1 [compound 29]
25 | 148 nM | COCc1ccc(C(=O)N2CCN(CC(=O)Nc3cc4c(cc3OC)OCO4)CC2)cc1 [compound 358]
26 | 40 nM | CC(=O)c1cc2c(cc1NC(=O)CN1CCN(C(=O)C(C)C)CC1)OCO2 [compound 11]

Same assay, conditions: Table 3; cells stably expressing hT2R54 and a promiscuous G protein; read-out: hT2R54 IC50

Row | IC50 | Structure (SMILES)
27 | 4000 nM | COc1cc2c(cc1NC(=O)CN1CCN(CC3CCCO3)CC1)OCO2 (stereo not drawn) [compound 416]
28 | 1060 nM | CC(=O)c1cc2c(cc1NC(=O)CN1CCN(Cc3ccccc3)CC1)OCO2 [compound 101, N-(6-acetylbenzo[d][1,3]dioxol-5-yl)-2-(4-benzylpiperazin-1-yl)acetamide]

Same assay, conditions: Table 4; cells stably expressing hT2R54 and a promiscuous G protein; read-out: hT2R54 IC50

Row | Structure (SMILES) | IC50
29 | COC(=O)CN(C)CC(=O)Nc1cc2c(cc1C(C)=O)OCO2 [compound 132] | 659 nM
30 | CC(=O)c1cc2c(cc1NC(=O)C(C)N1CCOCC1)OCO2 (stereo not drawn) [compound 110, N-(6-Acetylbenzo[d][1,3]dioxol-5-yl)-2-morpholinopropanamide] | 359 nM
31 | COc1cc2c(cc1NC(=O)CN1CCc3ccccc31)OCO2 [compound 150] | 393 nM
32 | CC(=O)c1cc2c(cc1NC(=O)C(C)(C)N1CCOCC1)OCO2 [compound 111, N-(6-Acetylbenzo[d][1,3]dioxol-5-yl)-2-methyl-2-morpholinopropanamide] | 207 nM
33 | CCOC(=O)CCN(C)CC(=O)Nc1cc2c(cc1C(C)=O)OCO2 [compound 133] | 113 nM
34 | COCCCN(C)CC(=O)Nc1cc2c(cc1C(C)=O)OCO2 [compound 425] | 643 nM
35 | CCOC(=O)C1CN(C(=O)OC(C)(C)C)CCN1CC(=O)Nc1cc2c(cc1C(C)=O)OCO2 (stereo not drawn) [compound 428] | 650 nM

Now from value to compound:

Row | IC50 | Structure (SMILES)
36 | 322 nM | COc1cc2c(cc1NC(=O)CN1CC(C)OC(C)C1)OCO2 (stereo not drawn) [compound 443]
37 | 575 nM | COc1cc2c(cc1NC(=O)CN1CCCC(OC)C1)OCO2 (stereo not drawn) [compound 145]
38 | 287 nM | COC(=O)c1cc2c(cc1NC(=O)CN1CCOCC1)OCO2 [compound 436]
39 | 700 nM | CCc1cc2c(cc1NC(=O)CN1CCN(C(=O)OC(C)(C)C)CC1)OCO2 [compound 448]

Same assay, conditions: Table 5; cells stably expressing hT2R54 and a promiscuous G protein; read-out: hT2R54 IC50

Row | IC50 | Structure (SMILES)
40 | 1400 nM | CC(=O)c1cc2c(cc1NC(=O)CN1CCC(C(=O)NCc3ccccc3)CC1)OCO2 [compound 165]

Same assay, conditions: Table 6; cells stably expressing hT2R54 and a promiscuous G protein; read-out: hT2R54 IC50

Row | IC50 | Structure (SMILES)
41 | 455 nM | CC(=O)c1cc2c(cc1NC(=O)CN1CCC(N(C)C(=O)c3cccnc3)CC1)OCO2 [compound 182]
42 | 60 nM | CC(=O)c1cc2c(cc1NC(=O)CNC1CCN(C(=O)c3ccco3)CC1)OCO2 [compound 178]

Same assay, conditions: Table 7; cells stably expressing hT2R54 and a promiscuous G protein; read-out: hT2R54 IC50

Row | IC50 | Structure (SMILES)
43 | 50 nM | CC(=O)c1cc2c(cc1NC(=O)CN(C)C1CCCN(C(=O)CC(C)C)C1)OCO2 (stereo not drawn) [compound 185]
44 | 90 nM | CCOC(=O)N1CCCC(N(C)CC(=O)Nc2cc3c(cc2C(C)=O)OCO3)C1 (stereo not drawn) [compound 188]

Same assay, conditions: Table 8; read-out: hT2R54 IC50

Row | IC50 | Structure (SMILES)
45 | 40 nM | CCCS(=O)(=O)N1CCCC(CC(=O)Nc2cc3c(cc2C(C)=O)OCO3)C1 (stereo not drawn) [compound 224]
46 | 6 nM | CC(=O)c1cc2c(cc1NC(=O)CC1CCN(C(=O)c3ccco3)CC1)OCO2 [compound 197, N-(6-Acetylbenzo[d][1,3]dioxol-5-yl)-2-(1-(furan-2-carbonyl)piperidin-4-yl)acetamide]
47 | 200 nM | CC(=O)c1cc2c(cc1NC(=O)CC1CCN(C(=O)c3n[nH]cc3C)CC1)OCO2 [compound 464]
48 | 300 nM | CC(=O)c1cc2c(cc1NC(=O)CC1CCN(C(=O)c3ccncc3)CC1)OCO2 [compound 454]
49 | 700 nM | CC(=O)c1cc2c(cc1NC(=O)CC1CCN(C(=O)c3cc(C)on3)CC1)OCO2 [compound 466]
50 | 240 nM | CC(=O)c1cc2c(cc1NC(=O)CC1CCN(C(=O)c3cccnc3)CC1)OCCO2 [compound 485]
51 | 460 nM | COC(=O)c1cc2c(cc1NC(=O)CC1CCN(C(=O)c3ccncc3)CC1)OCO2 [compound 484]
52 | 160 nM | CC(=O)c1cc2c(cc1NC(=O)CC1CCCN(S(=O)(=O)CC(C)C)C1)OCO2 (stereo not drawn) [compound 226]
53 | 290 nM | CC(=O)c1cc2c(cc1NC(=O)CC1CCN(C(=O)C(C)(C)C)C1)OCO2 (stereo not drawn) [compound 262]
54 | 506 nM | CC(=O)c1cc2c(cc1NC(=O)CC1CCN(C(=O)C3CCCC3)C1)OCO2 (stereo not drawn) [compound 266]
55 | 580 nM | CC(=O)c1cc2c(cc1NC(=O)CC1CCN(C(=O)Cc3ccncc3)CC1)OCO2 [compound 251]
56 | 170 nM | CC(=O)c1cc2c(cc1NC(=O)CC1CCCN(C(=O)c3ccncc3)C1)OCO2 (stereo not drawn) [compound 502]

Same assay, conditions: Table 9; read-out: hT2R54 IC50

Row | IC50 | Structure (SMILES)
57 | 1470 nM | COc1ccc(OC)c(CC(=O)Nc2cc3c(cc2C(C)=O)OCO3)c1 [compound 279]
